These molecules were tested against T1, p53-Y220C mutant protein (Homo sapiens, UniProt P04637, Y220C) (assay: In vitro DNA binding activity assay (TR-FRET)). Settings: concentration required to increase the binding activity of protein to DNA by 50%.
T1 construct: The recombinant Y220C p53 DBD protein with his-tag
Type: biochemical
Procedure: The activity of the compound to modulate the binding of the p53-Y220C mutant protein to DNA was detected using TR-FREt (Time-Resolved Fluorescence Resonance Energy Transfer). The recombinant Y220C p53 DBD protein with his-tag and the DNA sequence with biotin label were prepared firstly. Donor Eu(Europium)-SA(Streptavidin) can be bound to the DNA sequence through biotin, receptor for his antibody attached to alphaphycocyanin(APC, allophycocyanin), and his antibody can be bound to the Y220C p53 DBD protein with his-tag. When exposed to an excitation light with a wavelength of 340 nm, the donor Eu(Europium)-SA(Streptavidin) can emit fluorescence with a wavelength of 615 nm. If the donor and the receptor are close to each other, the donor will transfer part of the energy to the receptor and produce fluorescence with a wavelength of 665 nm. […] If there is no interaction, only 615 nm fluorescence is produced. • 1) Experimental steps • a. Adding 4 µL of dilute compound solution to each well of a 384-well microplate; • a. Adding 4 µL of 4X P53 working solution to each well of the 384-well microplate; • c. Sealing the 384-well microplate and equilibrating the system at room temperature for 60 min; • d. Adding 4 µl of biotin DNA solution to the 384-well microplate; • e. Adding 4 µl of 4X test solution (MAb Anti-6His-Eu and streptavidin-d2) to each well of the 384-well microplate; • f. Incubating overnight in the dark; and • g. Reading data of 665 nm and 615 nm wavelengths on the BMG multifunctional microplate reader. • 2) Data analysis • a. Calculating the ratio for each well (Ratio665 nm/615 nm-Ratiobackground); • b. Calculating the activity percentage (%activity) as follows: C = (Ave_Ac−Ave_Ba)/(Ave_Dc−Ave_Bd) [formula] R data = (A−Ave_Ba−CD)/(D−Ave_Bd)*(Ave_Dc−Ave_Bd) [formula] % Activity = R data/Ave_VC*100 [formula] • A: Fluorescence intensity of the sample at 665 nm; D: Fluorescence intensity of the sample at 615 nm; • Ba: Background fluorescence intensity of the culture plate at 665 nm; Bd: Background fluorescence intensity of the culture plate at 615 nm; • Dc: Background fluorescence intensity of HIS-E at 615 nm; Ac: Background fluorescence intensity of streptavidin-d2 at 665 nm); and • c. Calculating SC150 and plotting dose-effect curve
Compared to the absence of the compound of the present invention, the activation percentage of binding of the p53 mutant protein to DNA in the presence of the compound of the present invention is expressed as SC150, which indicates the concentration of the compound required to increase the DNA binding activity of the p53 mutant protein by 50%. The SC150 is calculated using Prism™.

Row | SC150 [nM] | Compound
1 | 40 | CN1CC[C@@H](Nc2cccc3c(CC(F)(F)F)c(C#CCNC(=O)c4ccc(=O)n(C)c4)nn23)[C@@H](F)C1 [Compound 265, N-[3-(7-{[(3S,4R)-3-fluoro-1-methylpiperidin-4-yl]amino}-3-(2,2,2-trifluoroethyl)pyrazolo[1,5-a]pyridin-2-yl)prop-2-yn-1-yl]-1-methyl-6-oxo-1,6-dihydropyridine-3-carboxamide]
2 | 17 | CN1CC[C@@H](Nc2cccc3c(CC(F)(F)F)c(C#CCNC(=O)c4cnn(CC#N)c4)nn23)[C@@H](F)C1 [Compound 249, 1-cyanomethyl-N-[3-(7-{[(3S,4R)-3-fluoro-1-methylpiperidin-4-yl]amino}-3-(2,2,2-trifluoroethyl)pyrazolo[1,5-a]pyridin-2-yl)prop-2-yn-1-yl]-1H-pyrazole-4-carboxamide]
3 | 9 | CCn1cc(C(=O)NCC#Cc2nn3c(N[C@@H]4CCN(C)C[C@@H]4F)cccc3c2CC(F)(F)F)c(N)n1 [Compound 329, 3-amino-1-ethyl-N-(3-(7-{[(3S,4R)-3-fluoro-1-methylpiperidin-4-yl]amino}-3-(2,2,2-trifluoroethyl)pyrazolo[1,5-a]pyridin-2-yl)prop-2-yn-1-yl]-1H-pyrazole-4-carboxamide]
4 | 9 | CN1CCC(Nc2cccc3c(CC(F)(F)F)c(C#CCNC(=O)c4cnn(C(C)(C)C)c4N)nn23)CC1 [Compound 370, 5-amino-1-tert-butyl-N-(3-(7-[(1-methylpiperidin-4-yl)amino]-3-(2,2,2-trifluoroethyl)pyrazolo[1,5-a]pyridin-2-yl)prop-2-yn-1-yl)-1H-pyrazole-4-carboxamide]
5 | 11 | CN1CC[C@@H](Nc2cccc3c(CC(F)(F)F)c(C#CCNC(=O)c4cnn(CCO)c4)nn23)[C@@H](F)C1 [Compound 310, N-[3-(7-{[(3S,4R)-3-fluoro-1-methylpiperidin-4-yl]amino}-3-(2,2,2-trifluoroethyl)pyrazolo[1,5-a]pyridin-2-yl)prop-2-yn-1-yl]-1-(2-hydroxyethyl)-1H-pyrazole-4-carboxamide]
6 | 41 | COc1cncc(C(=O)NCC#Cc2nn3c(N[C@@H]4CCN(C)C[C@@H]4F)cccc3c2CC(F)(F)F)c1 [Compound 335, N-[3-(7-{[(3S,4R)-3-fluoro-1-methylpiperidin-4-yl]amino}-3-(2,2,2-trifluoroethyl)pyrazolo[1,5-a]pyridin-2-yl)prop-2-yn-1-yl]-5-methoxynicotinamide]
7 | 13 | CN1CC[C@@H](Nc2cccc3c(CC(F)(F)F)c(C#CCNC(=O)c4cnn(C5(F)CC5)c4)nn23)[C@@H](F)C1 [Compound 304]
8 | 5 | CN1CCCC(Nc2cccc3c(CC(F)(F)F)c(C#CCNC(=O)c4cnn(C(C)(C)C)c4N)nn23)CC1 (single isomer, unassigned) [Compound 369-B, 5-amino-1-tert-butyl-N-(3-(7-[(1-methylazepan-4-yl)amino]-3-(2,2,2-trifluoroethyl)pyrazolo[1,5-a]pyridin-2-yl)prop-2-yn-1-yl)-1H-pyrazole-4-carboxamide]
9 | 14 | CN1CC[C@@H](Nc2cccc3c(CC(F)(F)F)c(C#CCNC(=O)c4cnn(C(C)(C)C#N)c4)nn23)[C@@H](F)C1 [Compound 248, 1-(1-cyano-1-methylethyl)-N-[3-(7-{[(3S,4R)-3-fluoro-1-methylpiperidin-4-yl]amino}-3-(2,2,2-trifluoroethyl)pyrazolo[1,5-a]pyridin-2-yl)prop-2-yn-1-yl]-1H-pyrazole-4-carboxamide]
10 | 99 | CC(C)c1cc(C(=O)NCC#Cc2nn3c(N[C@@H]4CCN(C)C[C@@H]4F)cccc3c2CC(F)(F)F)no1 [Compound 321, N-[3-(7-{[(3S,4R)-3-fluoro-1-methylpiperidin-4-yl]amino}-3-(2,2,2-trifluoroethyl)pyrazolo[1,5-a]pyridin-2-yl)prop-2-yn-1-yl]-5-isopropylisoxazole-3-carboxamide]
11 | 29 | CN1CC[C@@H](Nc2cccc3c(CC(F)(F)F)c(C#CCNC(=O)c4cn(C(C)(C)C)nn4)nn23)[C@@H](F)C1 [Compound 142, 1-tert-butyl-N-[3-(7-{[(3S,4R)-3-fluoro-1-methylpiperidin-4-yl]amino}-3-(2,2,2-trifluoroethyl)pyrazolo[1,5-a]pyridin-2-yl)prop-2-yn-1-yl]-1H-1,2,3-triazole-4-carboxamide]
12 | 7 | CN1CC[C@@H](Nc2cccc3c(CC(F)(F)F)c(C#CCNC(=O)c4cnn(C5COC5)c4)nn23)[C@@H](F)C1 [Compound 009, N-[3-(7-{[(3S,4R)-3-fluoro-1-methylpiperidin-4-yl]amino}-3-(2,2,2-trifluoroethyl)pyrazolo[1,5-a]pyridin-2-yl)prop-2-yn-1-yl]-1-(oxetan-3-yl)-1H-pyrazole-4-carboxamide]
13 | 8 | COCC(C)(C)n1cc(C(=O)NCC#Cc2nn3c(N[C@@H]4CCN(C)C[C@@H]4F)cccc3c2CC(F)(F)F)cn1 [Compound 022, N-[3-(7-{[(3S,4R)-3-fluoro-1-methylpiperidin-4-yl]amino}-3-(2,2,2-trifluoroethyl)pyrazolo[1,5-a]pyridin-2-yl)prop-2-yn-1-yl]-1-(1-methoxy-2-methylpropan-2-yl)-1H-pyrazole-4-carboxamide]
14 | 68 | CCc1cc(C(=O)NCC#Cc2nn3c(N[C@@H]4CCN(C)C[C@@H]4F)cccc3c2CC(F)(F)F)cs1 [Compound 336, 5-ethyl-N-[3-(7-{[(3S,4R)-3-fluoro-1-methylpiperidin-4-yl]amino}-3-(2,2,2-trifluoroethyl)pyrazolo[1,5-a]pyridin-2-yl)prop-2-yn-1-yl]thiophene-3-carboxamide]
15 | 10 | CN1CC[C@@H](Nc2cccc3c(CC(F)(F)F)c(C#CCNC(=O)c4cnn(CC5CC5)c4)nn23)[C@@H](F)C1 [Compound 268, 1-(cyclopropylmethyl)-N-[3-(7-{[(3S,4R)-3-fluoro-1-methylpiperidin-4-yl]amino}-3-(2,2,2-trifluoroethyl)pyrazolo[1,5-a]pyridin-2-yl)prop-2-yn-1-yl]-1H-pyrazole-4-carboxamide]
16 | 62 | CN1CC[C@@H](Nc2cccc3c(CC(F)(F)F)c(C#CCNC(=O)c4cnn(-c5ccccc5)c4)nn23)[C@@H](F)C1 [Compound 015, N-[3-(7-{[(3S,4R)-3-fluoro-l-methylpiperidin-4-yl]amino}-3-(2,2,2-trifluoroethyl)pyrazolo[1,5-a]pyridin-2-yl)prop-2-yn-1-yl]-1-phenyl-1H-pyrazole-4-carboxamide]
17 | 11 | Cc1cc(C(=O)NCC#Cc2nn3c(N[C@@H]4CCN(C)C[C@@H]4F)cccc3c2CC(F)(F)F)cn1C [Compound 273, N-[3-(7-{[(3S,4R)-3-fluoro-1-methylpiperidin-4-yl]amino}-3-(2,2,2-trifluoroethyl)pyrazolo[1,5-a]pyridin-2-yl)prop-2-yn-1-yl]-1,5-dimethyl-1H-pyrrole-3-carboxamide]
18 | 25 | CN1CC[C@@H](Nc2cccc3c(CC(F)(F)F)c(C#CCNC(=O)c4ccn5c4CCC5)nn23)[C@@H](F)C1 [Compound 302, N-[3-(7-{[(3S,4R)-3-fluoro-1-methylpiperidin-4-yl]amino}-3-(2,2,2-trifluoroethyl)pyrazolo[1,5-a]pyridin-2-yl)prop-2-yn-1-yl]-2,3-dihydro-1H-pyrrolizine-7-carboxamide]
19 | 11 | CN1CC[C@@H](Nc2cccc3c(CC(F)(F)F)c(C#CCNC(=O)c4cnn(C5CCC5)c4)nn23)[C@@H](F)C1 [Compound 006, 1-cyclobutyl-N-[3-(7-{[(3S,4R)-3-fluoro-1-methylpiperidin-4-yl]amino}-3-(2,2,2-trifluoroethyl)pyrazolo[1,5-a]pyridin-2-yl)prop-2-yn-1-yl]-1H-pyrazole-4-carboxamide]
20 | 45 | Cc1ccc(C(=O)NCC#Cc2nn3c(N[C@@H]4CCN(C)C[C@@H]4F)cccc3c2CC(F)(F)F)c(N)n1 [Compound 295, 2-amino-N-[3-(7-{[(3S,4R)-3-fluoro-1-methylpiperidin-4-yl]amino}-3-(2,2,2-trifluoroethyl)pyrazolo[1,5-a]pyridin-2-yl)prop-2-yn-1-yl]-6-methylnicotinamide]
